Data set [1] concerns the target T1, full length APP (Homo sapiens, UniProt P05067).
T1 construct: previously reported for full length APP (0.75 μM) (Bush et al., 1993)
The note with it: cited from earlier work.

For data set [2], the target named is T2, APP-E2 (Homo sapiens, UniProt P05067).
T2 construct: APP-E2 comprising Ser295-Asp500 (numbering according to APP695); hexa-histidine tag (C, cleaved yes); made in house; host or cells: E. coli BL21(DE3)pRIL
Briefly: CD-spectroscopy melting curves of APP-E2 at 222 nm. The settings on record: 7.5 μM APP-E2, 10 μM metal; inflection point of CD melting curve at 222 nm. The class given is binding. The method, then: CD-data were collected on a J-710 spectropolarimeter (Jasco Corporation) in the same buffers used for ITC binding studies adding 7.5 μM APP-E2 and 10 μM zinc or copper. CD-signals were measured at 222 nm upon heating (1° C./min) of the samples from 20° C. to 90° C. The blank signals produced by the buffers at 20° C. were subtracted as constant values from the melting curves. Indicated melting points correspond to the inflection points of the melting curves determined from the peak of the 1st order derivative calculated using spectra analysis software (Jasco Corporation).

For data set [3], the target named is T2, APP-E2. Briefly: Limited proteolysis with Trypsin. The settings on record: 40 μM metal, 20 μM protein, 0.5 μg/ml Trypsin. The class given is biochemical. The method, then:
Limited proteolysis was performed in 20 mM HEPES, 150 mM NaCl at pH 7.4 containing 0.5 μg/ml Trypsin (Calbiochem) and 20 μM purified protein (α-casein as control). Copper or zinc were supplemented at 40 μM to the Samples. Reactions were stopped after 30 and […] by addition of 10 mM PMSF and analyzed by SDS-PAGE. Protease cleavage sites were characterized by Edman sequencing (Procise 494A, Applied Biosystems, Foster City, Calif., USA). Limited proteolysis results shown were reproduced in three independent experiments.

Data set [4] concerns the target T2, APP-E2. Briefly: Isothermal titration calorimetry (ITC) of metal binding to APP-E2. The note with it: for n1: ITC stoichiometry, first site; for dH1: Cu in Tris, Zn in Hepes, pH 7.3. The method, then: ITC was performed at the same conditions as the metal retention assays in a NANO ITC calorimeter (TA Instruments, USA) adding 0.4 mM CuCl2 in 6 μl injections or 0.4 mM ZnCl2 in 11 μl injections to the cell containing 40 μM protein. Blank enthalphies for titrations of metals in buffer were subtracted from peak integrals. Binding constants were calculated with the NanoAnalyze program (TA Instruments, USA) using a model for a single set of identical binding sites in the case of copper binding. In the case of zinc binding the enthalpic data were fitted to a binding model representing two sets of independent binding sites, accounting for 1 strong binding site and 3.3 weak binding sites (4.3 total Zn^2+ sites) per protein molecule (for further details see supplementary data). All titrations were performed in triplicate. The initially determined KDapp of the APP-E2/Cu complex had to be corrected for competition with the copper ligand Tris (Hatcher et al., 2008) and its pH-dependent protonation. The exact coordination chemistry of Cu^2+ by Tris is, unfortunately, not precisely known, e.g. tertiary Cu(Tris)2 and quinary Cu(Tris)4 complexes are described in the literature. However, all models agree about the formation of a binary Tris-Cu^2+ complex, described by a formation constant pK1(Tris) of ˜4. The corrected KD was calculated according to KD=KDapp(1+ cTris×10^pK^1(Tris)/(1+10^−pH×Ka))^−1 using pK1(Tris)=3.82 (Canepari et al., 1999) and pKa(Tris)=8.1.
The effect of excessive zinc to protein ratios was studied in ITC experiments in three repeating titrations into the same cell solution. Titration was performed in 20 mM Hepes/NaOH pH 7.3, 150 mM NaCl at 20° C., adding a 0.8 mM ZnCl2 solution in 3×22 injections to 40 μM APP-E2, resulting in a final Zn^2+/protein ratio of 22. The molar ratios for titration experiment 2 and 3 were calculated neglecting intermixture of cell volume and slight volume changes occurring after refill of the syringe. Blank enthalphies for titrations of metals in buffer were subtracted from peak integrals.

For data set [5], the target named is T2, APP-E2. Briefly: Metal retention assay (ultrafiltration). The class given is binding. The note with it: 50 μM APP-E2, 75 μM metal, concentrated 8-fold. The method, then:
50 μM APP-E2 (without His-tag) and 75 μM CuCl2 in 50 mM Tris/HCl pH 7.3, 150 mM NaCl or 75 μM ZnCl2 in 20 mM Hepes/NaOH pH 7.3, 150 mM NaCl was concentrated 8-fold at 20° C. using Vivaspin 500 ultrafiltration devices with 5.000 MWCO PES membranes (Sartorius stedim biotech). Samples without protein, or containing 50 μM lysozyme instead of APP-E2, served as controls. Metal ions in the retenate were quantified by a spectrophotometric method (Sabel et al., 2010). Each experiment was performed in triplicate and the average ratio of the change in concentration relative to the starting concentration (c-c0/c0) was plotted.

In data set [6] the target is T2, APP-E2. Briefly: Determination of total Zn2+ binding sites on APP-E2. The method, then:
The protein was saturated with 10 mM ZnCl2 in 20 mM Hepes/NaOH pH 7.3, 150 mM NaCl resulting in quantitative precipitated of the protein. The precipitate was washed with buffer until a stable equilibrium ratio of zinc saturated protein in the liquid phase and the solid phase was reached. The concentration of Zn (Sabel et al., 2010) and protein (Bradford, 1976) were determined after each wash step in the liquid phase (supernatant) after […] centrifugation at 16,000 g. The ratio between [Zn^2+] and [APP-E2] at equilibrium conditions corresponds to the total number of zinc binding sites per protein molecule, which was determined to be 4.3+/−0.2 (FIG. 10B). Subtraction of one strong intra-molecular binding site yields the number of intermolecular binding sites of as 3.3.

Data set [7] has as its target T2, APP-E2. Briefly: GPC and GPC coupled SLS, oligomerization state with heparin. The data set is classed as binding. The settings on record: 50 μM APP-E2, 100 μM heparin; for MWSLS of APP-E2: GPC coupled SLS, absolute molecular weight; for MWrh of APP-E2: GPC, apparent molecular weight. The method, then: Analytical GPC and SLS studies were performed in 150 mM NaCl, 10 mM Sodium phosphate buffer, pH 7.3, on a calibrated (MWGF70, Sigma) Superdex200 10/300 GL column (GE Healthcare) using 50 μM APP-E2. Where applicable, a ˜3.6 kDa heparin preparation (Reviparin-Sodium, Abott) was added at 100 μM to the protein and the buffer. SLS data were recorded using VE 3580 RI and 270 Dual detectors (Viscotek, USA) and analyzed using software provided by the manufacturer. Given data represent average values±standard deviation of three independent experiments.

Data set [8] deals with the molecule itself. Briefly: gel permeation chromatography and GPC-coupled static light scattering, without and with low molecular weight heparin (self-association test). The method, then: All intermolecular contacts identified in the crystals analysed with the PISA server (Krissinel and Henrick, 2007) result from crystal packing, evidenced by the calculated complexation significance scores (CSS) that are equal to 0. Consequently, the protomer contacts are predominantly stabilized by the intermolecular coordinated cadmium ions. […] To investigate this observation further, the apparent molecular weight was determined based on the hydrodynamic radius (MWᵣₕ) using gel permeation chromatography (GPC) as well as the absolute molecular weight (MWSLS) employing GPC coupled static light scattering (SLS; Supplementary Figure S2). […] The influence of heparin on the oligomerization state of the E2 domain, which was described to promote dimer formation (Lee et al., 2011), was tested.

Several values for one entry are separate records, joined by “and”; a condition that tells them apart may be missing. Equal values may be shown once. Read-outs that look alike come from different tables or passages of the source. Marks after values point to notes of the source that are not given here.

T1 sequence (P05067 18-770, species assumed): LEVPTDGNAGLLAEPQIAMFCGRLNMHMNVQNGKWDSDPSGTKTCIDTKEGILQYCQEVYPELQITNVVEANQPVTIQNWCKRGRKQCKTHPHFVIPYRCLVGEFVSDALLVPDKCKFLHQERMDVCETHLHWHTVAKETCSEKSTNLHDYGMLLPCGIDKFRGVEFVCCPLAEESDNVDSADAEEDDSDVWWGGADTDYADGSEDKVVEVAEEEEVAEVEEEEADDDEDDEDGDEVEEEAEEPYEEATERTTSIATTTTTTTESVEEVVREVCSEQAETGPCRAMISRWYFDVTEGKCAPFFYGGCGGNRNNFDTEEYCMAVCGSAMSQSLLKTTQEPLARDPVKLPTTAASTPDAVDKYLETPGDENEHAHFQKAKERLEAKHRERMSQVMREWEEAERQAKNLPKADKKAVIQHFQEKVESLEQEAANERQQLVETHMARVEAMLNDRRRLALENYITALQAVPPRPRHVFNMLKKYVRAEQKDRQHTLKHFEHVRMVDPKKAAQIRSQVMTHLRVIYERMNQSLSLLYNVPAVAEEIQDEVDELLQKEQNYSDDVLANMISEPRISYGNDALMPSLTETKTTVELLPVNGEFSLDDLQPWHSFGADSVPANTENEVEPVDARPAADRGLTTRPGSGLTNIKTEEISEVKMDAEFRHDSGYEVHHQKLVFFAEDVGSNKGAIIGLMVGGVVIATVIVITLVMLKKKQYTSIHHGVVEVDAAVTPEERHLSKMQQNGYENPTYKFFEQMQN

For the molecule `[Cu+2]` [Cu^2+, copper], the Kd is 0.01 µM in data set [1] (Hesse et al., 1994, read-out: dissociation constant for full length APP (copper)); about 0.02 µM in data set [4] (intersection point with the ordinate, 15-75 mM Tris, read-out: KD from linear extrapolation of apparent KD as function of Tris concentration); at most 0.013 µM in data set [4] (minimal model of a Cu2+-Tris 1:1 complex, upper (weakest) limit, listed as copper, read-out: KD corrected for Tris competition); under 0.013 µM in data set [4] (minimal model of a Cu2+-Tris 1:1 complex, upper (weakest) limit, read-out: KD corrected for Tris competition). In data set [2], the “melting temperature of APP-E2” value stood at 61.0±0.0 °C. For the same molecule, the “effect on Trypsin cleavage of APP-E2” value in data set [3] is listed as “stabilizes especially fragment 1”. For the same molecule, the n1 in data set [4] is listed as 0.70 ± 0.03. The dH1 in data set [4] (ITC) was -4.76 ± 0.22 kcal/mol. Besides, the “retention of metal ions upon APP-E2 concentration” value in data set [5] is reported as “accumulated in the retenate”.
Take `[Zn+2]` [Zn^2+, zinc]: the Kd in data set [1] (Bush et al., 1993, read-out: dissociation constant for full length APP (zinc)) is 0.75 µM; in data set [4] (ITC, 20 mM Hepes/NaOH pH 7.3, 150 mM NaCl, two sets of independent sites, strong site, listed as zinc, read-out: KD1, Zn-APP-E2) it was at most 3.9 µM; in data set [4] (ITC, 20 mM Hepes/NaOH pH 7.3, 150 mM NaCl, two sets of independent sites, strong site, read-out: KD1, Zn-APP-E2), 3.9 ± 1.5 µM; in data set [4] (ITC, Hepes pH 7.3, weak sites, not statistically significant in curve fit, listed as zinc, read-out: KD2, Zn-APP-E2), at most 2600 µM; in data set [4] (ITC, Hepes pH 7.3, weak sites, not statistically significant in curve fit, read-out: KD2, Zn-APP-E2) it was 2600 µM. In addition, the “melting temperature of APP-E2” value in data set [2] was 64.2±0.3 °C. Besides, the “effect on Trypsin cleavage of APP-E2” value in data set [3] was “Trypsin cleavage at Arg385 completely disappeared”. Besides, the “total number of zinc binding sites per protein molecule” value in data set [6] (ratio [Zn2+]/[APP-E2] at equilibrium after wash steps) was 4.3+/−0.2 and 4.3. For the same molecule, the “number of weak (intermolecular) zinc binding sites” value in data set [6] (total minus one strong intramolecular site) stood at 3.3. Moreover, the “exothermic zinc binding reaction with copper pre-saturated APP-E2” value in data set [4] (ITC competition) is “completely missing”. Further, the n1 in data set [4] worked out at 0.7 ± 0.2. For the same molecule, in data set [4] (ITC), the dH1 is -3.97 ± 0.14 kcal/mol. In addition, the n2 in data set [4] (weak sites, determined independently and fixed during curve fit) is on record as 3.3^b. The “retention of metal ions upon APP-E2 concentration” value in data set [5] is recorded as “accumulated in the retenate”.
On to Reviparin-Sodium [HP], for which, in data set [7], the “MWSLS of APP-E2” value is recorded as 31.6 ± 0.2 kDa and the “MWrh of APP-E2” value is on record as 39.2 ± 0.4 kDa. In addition, in data set [7] (listed as Clivarin), the “MWSLS of APP-E2” value amounted to 31.6 kDa and the “MWrh of APP-E2” value is 39.2 kDa.

B1: APP-E2 comprising Ser295-Asp500 (numbering according to APP695) (other)
chain: STPDAVDKYLETPGDENEHAHFQKAKERLEAKHRERMSQVMREWEEAERQAKNLPKADKKAVIQHFQEKVESLEQEAANERQQLVETHMARVEAMLNDRRRLALENYITALQAVPPRPRHVFNMLKKYVRAEQKDRQHTLKHFEHVRMVDPKKAAQIRSQVMTHLRVIYERMNQSLSLLYNVPAVAEEIQDEVDELLQKEQNYSDD
notes: The C-terminal His tag was cleaved for the biochemical studies; also called E2 domain; human APP-E2 domain; not shown: a few non-native C-terminal residues left after the hexa-histidine tag was cleaved off (factor Xa or V8 protease); their
As for B1, in data set [8], the binding result is listed as “no binding (tested: 50 µM APP-E2)”.

(Values after patent US20130052654A1, “Amyloid Precursor Protein E2 Domain and Uses Thereof” (Leibniz Institute For Age Research - Fritz Lipmann …, priority 2011, published 2013).)
